Assay results from patent US5622976A, “Oxadiazole derivatives having acetylcholinesterase-inhibitory and muscarinic agonist activity” (priority 1991, dated 1997).

Target: T1, acetylcholinesterase (Rattus norvegicus, UniProt P37136)
T1 construct: obtained from rat's corpus striatum; from tissue; host or cells: rat corpus striatum
Test: Inhibition of acetylcholinesterase (enzyme assay)
Assay type: biochemical
Settings: acetylcholinesterase from rat's corpus striatum
Protocol: The ability to inhibit acetylcholinesterase was determined by the method (enzyme assay) described in Clinica Chimica Acta, 115 (1981) 163-170. The acetylcholinesterase used in this test was obtained from rat's corpus striatum.

T1 sequence (P37136 32-614): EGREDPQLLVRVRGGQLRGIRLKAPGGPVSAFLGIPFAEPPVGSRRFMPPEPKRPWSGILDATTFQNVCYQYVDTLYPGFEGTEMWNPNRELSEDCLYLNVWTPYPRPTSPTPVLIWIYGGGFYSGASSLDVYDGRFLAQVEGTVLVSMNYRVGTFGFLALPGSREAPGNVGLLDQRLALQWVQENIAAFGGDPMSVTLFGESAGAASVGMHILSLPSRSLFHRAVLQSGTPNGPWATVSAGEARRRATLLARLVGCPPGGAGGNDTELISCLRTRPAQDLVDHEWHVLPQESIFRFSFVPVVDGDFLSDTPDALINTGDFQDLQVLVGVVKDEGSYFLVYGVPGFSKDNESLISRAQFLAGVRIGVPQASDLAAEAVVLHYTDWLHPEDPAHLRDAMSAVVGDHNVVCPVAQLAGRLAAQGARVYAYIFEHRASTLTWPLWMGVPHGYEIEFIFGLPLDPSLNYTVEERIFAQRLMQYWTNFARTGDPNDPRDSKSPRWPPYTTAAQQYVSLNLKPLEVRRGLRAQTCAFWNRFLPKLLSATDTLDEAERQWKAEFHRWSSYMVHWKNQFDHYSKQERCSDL

## O=C(NCCC1CCN(Cc2ccccc2)CC1)c1noc(C2CN3CCC2CC3)n1 (centres unmarked) [(a)]
  IC50: 8 nM

## O=C(NCCC1CCN(Cc2ccccc2)CC1)c1noc(-c2ccc([N+](=O)[O-])cc2)n1 [(b)]
  IC50: 1.7 nM
